From ChEMBL document CHEMBL4346752, “Discovery and evaluation of novel nitrodihydroimidazooxazoles as promising anti-tuberculosis agents” (Bioorg Med Chem Lett, 2019) come the findings set out here.

The MIC is the lowest concentration that inhibits growth of the organism.

Converted amounts (≈) assume the structure as drawn. Bounds are passed on as bounds.

The assay concerns Mycobacterium tuberculosis variant bovis. Put plainly: Antimycobacterial activity against Mycobacterium bovis ATCC 35737 assessed as reduction in bacterial cell growth incubated for 8 days by alamar blue staining based assay. Format: functional. As to conditions: ATCC 35737, 192 h.

Turning to `C[C@]1(COc2ccc(N3CCC(Oc4ccc(OC(F)(F)F)cc4)CC3)cc2)Cn2cc([N+](=O)[O-])nc2O1`, the MIC is ≤ 0.0625 µg/mL.
Then `C[C@]1(CN2CCc3nc(-c4ccc(F)c(F)c4)oc3C2)Cn2cc([N+](=O)[O-])nc2O1`, with 0.125 µg/mL (≈ 0.299 µM); and `C[C@]1(CN2CCc3nc(C4CCOCC4)ccc3C2)Cn2cc([N+](=O)[O-])nc2O1`, with 2 µg/mL (≈ 5.01 µM).
As to `C[C@]1(CN2CCc3nc(-c4ccccc4F)ccc3C2)Cn2cc([N+](=O)[O-])nc2O1`, the MIC was found to be 0.125 µg/mL (≈ 0.305 µM).
As to `C[C@]1(CN2CCc3oc(-c4ccc(F)cc4)nc3C2)Cn2cc([N+](=O)[O-])nc2O1`, the minimal inhibitory concentration (MIC) was 0.5 µg/mL (≈ 1.25 µM).
As to `C[C@]1(CN2CCc3nc(-c4ccc(C(F)(F)F)cc4)ccc3C2)Cn2cc([N+](=O)[O-])nc2O1`, the MIC is ≤ 0.0625 µg/mL.
The figure for `C[C@]1(CN2CCc3nc(-c4ccc(Cl)cc4)ccc3C2)Cn2cc([N+](=O)[O-])nc2O1` is 2 µg/mL (≈ 4.7 µM); for `C[C@]1(CN2CCc3nc(-c4ccc(F)cc4)nnc3C2)Cn2cc([N+](=O)[O-])nc2O1` it is 0.5 µg/mL (≈ 1.22 µM).
The figure for `C[C@]1(CN2CCc3nc(N4CCCCC4)ccc3C2)Cn2cc([N+](=O)[O-])nc2O1` is 0.5 µg/mL (≈ 1.25 µM); for `C[C@]1(CN2CCc3nc(-c4ccccc4)ccc3C2)Cn2cc([N+](=O)[O-])nc2O1` it is 0.25 µg/mL (≈ 0.639 µM); for `C[C@]1(CN2CCc3nc(-c4ccc(F)cc4)oc3C2)Cn2cc([N+](=O)[O-])nc2O1` it is 0.25 µg/mL (≈ 0.626 µM).
For the compound `C[C@]1(CN2CCc3nc(-c4ccc(F)cc4)sc3C2)Cn2cc([N+](=O)[O-])nc2O1`, the MIC worked out at 0.125 µg/mL (≈ 0.301 µM).
Then `C[C@]1(CN2CCc3sc(-c4ccc(F)cc4)nc3C2)Cn2cc([N+](=O)[O-])nc2O1`, with 0.25 µg/mL (≈ 0.602 µM); and `C[C@]1(CN2CCc3nc(-c4ccccc4)ncc3C2)Cn2cc([N+](=O)[O-])nc2O1`, with 1 µg/mL (≈ 2.55 µM); and `C[C@]1(CN2CCc3nc(N4CCC(F)(F)CC4)ccc3C2)Cn2cc([N+](=O)[O-])nc2O1`, with 0.5 µg/mL (≈ 1.15 µM).
Then `C[C@]1(CN2CCc3nc(-c4cc(F)ccc4Cl)ccc3C2)Cn2cc([N+](=O)[O-])nc2O1`, with ≤ 0.0625 µg/mL.
With `C[C@]1(CN2CCc3oc(-c4ccc(F)c(F)c4)nc3C2)Cn2cc([N+](=O)[O-])nc2O1`, the minimal inhibitory concentration (MIC) stood at 0.25 µg/mL (≈ 0.599 µM).
Then `C[C@]1(CN2CCc3nc(-c4cc(F)cc(F)c4)ccc3C2)Cn2cc([N+](=O)[O-])nc2O1`, with ≤ 0.0625 µg/mL.
Then `C[C@]1(CN2CCc3nc(-c4cc(F)ccc4F)ccc3C2)Cn2cc([N+](=O)[O-])nc2O1`, with ≤ 0.0625 µg/mL.
Regarding `C[C@]1(CN2CCc3nc(C4CCCCC4)ccc3C2)Cn2cc([N+](=O)[O-])nc2O1`, the MIC came out at 0.25 µg/mL (≈ 0.629 µM).
Then `C[C@]1(CN2CCc3nc(-c4ccc(F)cc4)ccc3C2)Cn2cc([N+](=O)[O-])nc2O1`, with ≤ 0.0625 µg/mL.
Then `C[C@]1(CN2CCc3nc(-c4ccc(F)cc4F)ccc3C2)Cn2cc([N+](=O)[O-])nc2O1`, with ≤ 0.0625 µg/mL; and `C[C@]1(CN2CCc3nc(-c4cc(F)cc(Cl)c4)ccc3C2)Cn2cc([N+](=O)[O-])nc2O1`, with ≤ 0.0625 µg/mL; and `C[C@]1(CN2CCc3nc(-c4cccc(F)c4)ccc3C2)Cn2cc([N+](=O)[O-])nc2O1`, with ≤ 0.0625 µg/mL.
Then `C[C@]1(CN2CCc3nc(-c4ccc(OC(F)(F)F)cc4)ccc3C2)Cn2cc([N+](=O)[O-])nc2O1`, with 8 µg/mL (≈ 16.8 µM).
Consider `C[C@]1(CN2CCc3nc(-c4cc(Cl)ccc4F)ccc3C2)Cn2cc([N+](=O)[O-])nc2O1`, for which the MIC was ≤ 0.0625 µg/mL.
`C[C@]1(CN2CCc3nc(-c4ccc(F)c(Cl)c4)ccc3C2)Cn2cc([N+](=O)[O-])nc2O1`: the MIC was ≤ 0.0625 µg/mL.
Then `C[C@]1(CN2CCc3nc(-c4cccc(F)c4F)ccc3C2)Cn2cc([N+](=O)[O-])nc2O1`, with ≤ 0.0625 µg/mL; and `C[C@]1(CN2CCc3nc(-c4cc(F)c(F)c(F)c4)ccc3C2)Cn2cc([N+](=O)[O-])nc2O1`, with ≤ 0.0625 µg/mL.
The figure for `C[C@]1(CN2CCc3nc(C(F)(F)F)ccc3C2)Cn2cc([N+](=O)[O-])nc2O1` is 2 µg/mL (≈ 5.22 µM); for `C[C@]1(CN2CCc3nc(-c4ccc(Cl)cc4F)ccc3C2)Cn2cc([N+](=O)[O-])nc2O1` it is ≤ 0.0625 µg/mL; for `C[C@]1(CN2CCn3nc(-c4ccc(F)c(F)c4)nc3C2)Cn2cc([N+](=O)[O-])nc2O1` it is 1 µg/mL (≈ 2.4 µM).
Then `C[C@]1(CN2CCc3oc(-c4ccc(F)cc4)cc3C2)Cn2cc([N+](=O)[O-])nc2O1`, with 1 µg/mL (≈ 2.51 µM); and `C[C@]1(CN2CCc3nc(N4CCOCC4)ccc3C2)Cn2cc([N+](=O)[O-])nc2O1`, with 0.5 µg/mL (≈ 1.25 µM).
Take `C[C@]1(CN2CCc3nc(-c4ccc(C#N)cc4)ccc3C2)Cn2cc([N+](=O)[O-])nc2O1`: the MIC was found to be 2 µg/mL (≈ 4.8 µM).
The figure for `C[C@]1(CN2CCc3nc(-c4ccc(Cl)c(F)c4)ccc3C2)Cn2cc([N+](=O)[O-])nc2O1` is ≤ 0.0625 µg/mL.
Then `C[C@]1(CN2CCc3nc(-c4cccc(Cl)c4F)ccc3C2)Cn2cc([N+](=O)[O-])nc2O1`, with ≤ 0.0625 µg/mL; and `C[C@]1(CN2CCc3nc(-c4ccc(F)c(F)c4)ccc3C2)Cn2cc([N+](=O)[O-])nc2O1`, with ≤ 0.0625 µg/mL.
Then `C[C@]1(CN2CCn3cc(-c4ccc(F)cc4)nc3C2)Cn2cc([N+](=O)[O-])nc2O1`, with 1 µg/mL (≈ 2.51 µM); and `C[C@]1(CN2CCc3nc(C4CC4)ccc3C2)Cn2cc([N+](=O)[O-])nc2O1`, with 0.5 µg/mL (≈ 1.41 µM).
Consider `C[C@]1(CN2CCn3cc(-c4ccc(F)c(F)c4)nc3C2)Cn2cc([N+](=O)[O-])nc2O1`, for which the MIC was 1 µg/mL (≈ 2.4 µM).
